Data published in patent US20240041042A1, “1-(PYRIDYL)-5-AZINYLPYRAZOLE DERIVATIVES, AND THEIR USE FOR CONTROL OF UNDESIRED PLANT GROWTH” (Bayer Aktiengesellschaft, priority 2020, published 2024).
Read-outs that look alike come from different tables or passages of the source.

How the values were obtained:
Type in all cases: in vivo
[1] = system: Alopecurus myosuroides (ALOMY); test: Post-emergence herbicidal action against ALOMY; conditions: visual rating about 3 weeks after treatment vs untreated controls (100% = plants have died, 0% = like control plants)
Outline: (§1)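 Values are percent visual activity (0% like control, 100% plants dead) after about 3 weeks in the greenhouse. Treatment: post-emergence spray at one-leaf stage, 600 l/ha spray volume, 0.5% additive, doses 320 g/ha or lower.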

[2] = system: Echinochloa crus-galli (ECHCG); test: Pre-emergence herbicidal action against ECHCG; conditions: dosage 320 g/ha
Outline: (§2)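 Application rates ran to 320 g/ha or lower, with several dosages tested on the same weeds. The compound, as wettable powder or emulsion concentrate, is sprayed pre-emergence onto soil over sown seeds; greenhouse growth follows, and effect is rated visually after roughly 3 weeks.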

[3] = system: Verconica persica (VERPE); test: Pre-emergence herbicidal action against VERPE; conditions: dosage 320 g/ha
Outline: as §2

Setaria viridis (SETVI) [4] = test: Post-emergence herbicidal action against SETVI
Outline: as §1

Setaria viridis (SETVI) [5] = test: Pre-emergence herbicidal action against SETVI
Outline: as §2

Lolium rigidum (LOLRI) [6] = test: Post-emergence herbicidal action against LOLRI
Outline: as §1

Viola tricolor (VIOTR) [7] = test: Post-emergence herbicidal action against VIOTR
Outline: as §1

[8] = system: Alopecurus myosuroides (ALOMY); test: Pre-emergence herbicidal action against ALOMY; conditions: scored visually after about 3 weeks, 100% = plants have died
Outline: as §2

[9] = system: Digitaria sanguinalis (DIGSA); test: Pre-emergence herbicidal action against DIGSA
Source text: Seeds of monocotyledonous and dicotyledonous weed plants and crop plants are placed in plastic or organic planting pots and covered with soil. The compounds of the invention, formulated in the form of wettable powders (WP) or as emulsion concentrates (EC), are then applied to the surface of the covering soil as aqueous suspension or emulsion with addition of 0.5% additive at a water application rate equivalent to 600 l/ha. After the treatment, the pots are placed in a greenhouse and kept under good growth conditions for the trial plants. After about 3 weeks, the effect of the preparations is scored visually in comparison with untreated controls as percentages. For example, 100% activity=the plants have died, 0% activity=like control plants.
Tables A1 to A13 below show the effects of selected compounds of the general formula (I) on various harmful plants and at an application rate corresponding to 320 g/ha or lower, which were obtained by the experimental procedure mentioned above. The appendices “a”, “b” and “c” give differentiation by dosage used with otherwise the same harmful plants tested.

Avena fatua (AVEFA) [10] = test: Pre-emergence herbicidal action against AVEFA; conditions: visual scoring after about 3 weeks vs untreated controls
Outline: as §2

Avena fatua (AVEFA) [11] = test: Post-emergence herbicidal action against AVEFA; conditions: visual rating about 3 weeks after treatment
Outline: as §1

[12] = system: Echinochloa crus-galli (ECHCG); test: Post-emergence herbicidal action against ECHCG
Outline: as §1

[13] = system: Verconica persica (VERPE); test: Post-emergence herbicidal action against VERPE
Outline: as §1

Viola tricolor (VIOTR) [14] = test: Pre-emergence herbicidal action against VIOTR
Outline: as §2

[15] = system: Abutilon theophrasti (ABUTH); test: Post-emergence herbicidal action against ABUTH; conditions: 320 g/ha, visual rating about 3 weeks after treatment vs untreated controls (100% = plants have died, 0% = like control plants)
Outline: as §1

[16] = system: Pharbitis purpurea (PHBPU); test: Pre-emergence herbicidal action against PHBPU; conditions: dosage 320 g/ha
Outline: as §2

[17] = system: Amaranthus retroflexus (AMARE); test: Pre-emergence herbicidal action against AMARE; conditions: visual scoring after about 3 weeks vs untreated controls
Outline: as §2

[18] = system: Amaranthus retroflexus (AMARE); test: Post-emergence herbicidal action against AMARE
Outline: as §1

[19] = system: Polygonum convolvulus (POLCO); test: Post-emergence herbicidal action against POLCO
Outline: as §1

[20] = system: Polygonum convolvulus (POLCO); test: Pre-emergence herbicidal action against POLCO
Outline: as §2

[21] = system: Matricaria inodora (MATIN); test: Pre-emergence herbicidal action against MATIN
Outline: as §2

[22] = system: Pharbitis purpurea (PHBPU); test: Post-emergence herbicidal action against PHBPU
Outline: as §1

Lolium rigidum (LOLRI) [23] = test: Pre-emergence herbicidal action against LOLRI
Outline: as §2

Oryza sativa (ORYSA) = conditions: crop plant compatibility
Outline: (§3)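 Visual rating (% effect vs. untreated plants; 100% = plant death) made about 3 weeks after treatment. Plants had been sprayed at one-leaf stage, 2–3 weeks post-sowing, with aqueous WP/EC preparations containing 0.5% additive, 600 l/ha water volume; a, b, c mark dose levels.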

[24] = system: Digitaria sanguinalis (DIGSA); test: Post-emergence herbicidal action against DIGSA; conditions: 80 g/ha, visual rating about 3 weeks after treatment
Outline: as §1

Zea mays (ZEAMX) = system: Zea mays (ZEAMX)
Outline: as §3

[25] = 80 g/ha, visual scoring after about 3 weeks vs untreated controls
[26] = 80 g/ha, visual rating about 3 weeks after treatment vs untreated controls (100% = plants have died, 0% = like control plants)

COC(=O)C(C)COC(=O)C(C)Oc1nn(-c2ccccn2)c(-c2ccc(F)nc2)c1Cl (centres unmarked) [Example I-291]
Post-emergence action against ALOMY in % ([1]; 80 g/ha): 80% | Post-emergence action against ALOMY in % ([1]; 320 g/ha): 80% | Pre-emergence action against ECHCG in % [2]: 90% | Pre-emergence action against VERPE in % [3]: 80% | Post-emergence action against SETVI in % (Setaria viridis (SETVI) [4]; dosage 80 g/ha): 80% | Post-emergence action against SETVI in % (Setaria viridis (SETVI) [4]; dosage 320 g/ha): 80% | Pre-emergence action against SETVI in % (Setaria viridis (SETVI) [5]; dosage 80 g/ha): 90% | Pre-emergence action against SETVI in % (Setaria viridis (SETVI) [5]; dosage 320 g/ha): 90% | Post-emergence action against LOLRI in % (Lolium rigidum (LOLRI) [6]; dosage 80 g/ha): 80% | Post-emergence action against LOLRI in % (Lolium rigidum (LOLRI) [6]; dosage 320 g/ha): 80% | Post-emergence action against VIOTR in % (Viola tricolor (VIOTR) [7]; 80 g/ha): 80% | Post-emergence action against VIOTR in % (Viola tricolor (VIOTR) [7]; 320 g/ha): 80% | Pre-emergence action against ALOMY ([8]; 80 g/ha): 100% | Pre-emergence action against ALOMY ([8]; 320 g/ha): 100% | Pre-emergence action against DIGSA in % [9, 25]: 100% | Pre-emergence action against DIGSA in % ([9]; dosage 320 g/ha): 100% | Pre-emergence action against AVEFA in % (Avena fatua (AVEFA) [10]; 80 g/ha): 80% | Pre-emergence action against AVEFA in % (Avena fatua (AVEFA) [10]; 320 g/ha): 90% | Post-emergence action against AVEFA in % (Avena fatua (AVEFA) [11]; 80 g/ha): 80% | Post-emergence action against AVEFA in % (Avena fatua (AVEFA) [11]; 320 g/ha): 80% | Post-emergence action against ECHCG in % ([12]; dosage 80 g/ha): 80% | Post-emergence action against ECHCG in % ([12]; dosage 320 g/ha): 80% | Post-emergence action against VERPE in % ([13]; 320 g/ha, VERPE): 80% | Pre-emergence action against VIOTR in % (Viola tricolor (VIOTR) [14]; 320 g/ha, Viola tricolor): 100% | Pre-emergence action against VIOTR in % (Viola tricolor (VIOTR) [14]; dosage 80 g/ha): 90% | Post-emergence action against ABUTH in % [15]: 80% | Pre-emergence action against PHBPU in % [16]: 80% | Pre-emergence action against AMARE in % ([17]; 80 g/ha): 80% | Pre-emergence action against AMARE in % ([17]; 320 g/ha): 100% | Post-emergence action against AMARE in % [18, 26]: 80% | Post-emergence action against AMARE in % ([18]; 320 g/ha, visual rating about 3 weeks after treatment): 80% | Post-emergence action against POLCO in % ([19]; dosage 80 g/ha): 80% | Post-emergence action against POLCO in % ([19]; dosage 320 g/ha): 80% | Pre-emergence action against POLCO in % ([20]; dosage 80 g/ha): 80% | Pre-emergence action against POLCO in % ([20]; dosage 320 g/ha): 90% | Pre-emergence action against MATIN in % ([21]; dosage 320 g/ha): 90% | Post-emergence action against PHBPU in % ([22]; dosage 80 g/ha): 80% | Post-emergence action against PHBPU in % ([22]; dosage 320 g/ha): 90% | Pre-emergence action against LOLRI in % (Lolium rigidum (LOLRI) [23]; dosage 80 g/ha): 90% | Pre-emergence action against LOLRI in % (Lolium rigidum (LOLRI) [23]; dosage 320 g/ha): 100% | Post-emergence action against ORYSA in % (Oryza sativa (ORYSA); 80 g/ha, effect in comparison to untreated controls): 0%

O=C(COc1nn(-c2ncccc2F)c(-c2ccc(F)nc2)c1Br)OCc1ccccn1 [Example I-46]
Post-emergence action against ALOMY in % ([1]; 80 g/ha): 90% | Pre-emergence action against ECHCG in % [2]: 90% | Pre-emergence action against VERPE in % [3]: 100% | Pre-emergence action against SETVI in % (Setaria viridis (SETVI) [5]; dosage 80 g/ha): 90% | Pre-emergence action against SETVI in % (Setaria viridis (SETVI) [5]; dosage 320 g/ha): 100% | Pre-emergence action against ALOMY ([8]; 80 g/ha): 90% | Pre-emergence action against ALOMY ([8]; 320 g/ha): 100% | Pre-emergence action against DIGSA in % [9, 25]: 100% | Pre-emergence action against DIGSA in % ([9]; dosage 320 g/ha): 100% | Pre-emergence action against AVEFA in % (Avena fatua (AVEFA) [10]; 320 g/ha): 90% | Post-emergence action against AVEFA in % (Avena fatua (AVEFA) [11]; 80 g/ha): 80% | Post-emergence action against VERPE in % ([13]; dosage 80 g/ha): 80% | Pre-emergence action against VIOTR in % (Viola tricolor (VIOTR) [14]; 320 g/ha, Viola tricolor): 100% | Pre-emergence action against VIOTR in % (Viola tricolor (VIOTR) [14]; dosage 80 g/ha): 90% | Post-emergence action against DIGSA in % [24]: 90% | Pre-emergence action against AMARE in % ([17]; 80 g/ha): 100% | Pre-emergence action against AMARE in % ([17]; 320 g/ha): 100% | Post-emergence action against AMARE in % [18, 26]: 90% | Pre-emergence action against POLCO in % ([20]; dosage 320 g/ha): 80% | Pre-emergence action against MATIN in % ([21]; dosage 80 g/ha): 90% | Pre-emergence action against MATIN in % ([21]; dosage 320 g/ha): 90% | Post-emergence action against PHBPU in % ([22]; dosage 80 g/ha): 80% | Pre-emergence action against LOLRI in % (Lolium rigidum (LOLRI) [23]; dosage 80 g/ha): 90% | Pre-emergence action against LOLRI in % (Lolium rigidum (LOLRI) [23]; dosage 320 g/ha): 100% | Post-emergence action against ORYSA in % (Oryza sativa (ORYSA); 20 g/ha, effect vs untreated controls): 10% | Post-emergence action against ZEAMX in % (crop plant compatibility) (Zea mays (ZEAMX); 20 g/ha, ZEAMX, effect in comparison to untreated controls): 0% | Post-emergence action against ZEAMX in % (Zea mays (ZEAMX); crop plant compatibility, 80 g/ha, effect vs untreated controls): 10%
